Test [1] has as its system primary glial cells. Briefly: Inhibition of the NO release of primary glial cells induced by LPS. The test is classed as cell-based, rat.
Test [2] concerns hippocampus GFAP. In words: Number of hippocampus astrocytes with GFAP positive expression in MPTP Parkinson's disease model mouse (immunohistochemistry). The following applies: for Positive cell number (astrocytes with GFAP positive expression): hippocampus, MPTP Parkinson's disease model mouse, immunohistochemistry. The class given is in vivo.
For test [3], the system named is midbrain CD11b. Briefly: Midbrain CD11b protein expression in MPTP Parkinson's disease model mouse (western-blotting). The following applies: for Expression (CD11b/GAPDH): midbrain, MPTP Parkinson's disease model mouse, western-blotting. The class given is in vivo.
In test [4] the test system is midbrain p-α-s. In words: Midbrain p-α-s protein expression in MPTP Parkinson's disease model mouse (western-blotting). The class given is in vivo. Particulars: midbrain total protein, GAPDH internal reference, gavage 21 consecutive days after MPTP modeling.
Test [5] has as its system midbrain pp38. In words: Midbrain pp38 protein expression in MPTP Parkinson's disease model mouse (western-blotting). The test is classed as in vivo. The following applies: midbrain total protein, GAPDH internal reference, gavage 21 days after MPTP modeling.
[6] abbreviates: Rattus norvegicus, Glial cell, 5 μM, read-out: NO inhibition (%).
[7] abbreviates: Rattus norvegicus, Glial cell, 10 μM, read-out: NO inhibition (%).
The mark [8] stands for this setting: Rattus norvegicus, Glial cell, read-out: NO inhibition (%).

As a reminder, the inhibition is how much of the control response was suppressed.

Like-named read-outs stand apart in the source and are kept apart here.

As for `CCN(CC)C(=O)Oc1ccc(/C=C/S(=O)(=O)CCCc2ccccc2)cc1OC(=O)N(CC)CC` [Compound C1-1, (E)-4-[2-(3-phenylpropylsulfonyl)ethenyl]-1,2-phenylenebis(diethylcarbamate)], the “NO inhibitory rate compared with the styryl sulfone prototype compounds” value in test [1] was “equivalent or higher inhibitory rate”. Also, the inhibition at 5 µM in test [1] (setting [6]) was found to be 17.6 ± 3.24%. Further, in test [1] (setting [7]), the inhibition at 10 µM worked out at 32.8 ± 5.25%. Besides, the inhibition at 20 µM in test [1] (Rattus norvegicus, Glial cell, 20 μM, read-out: NO inhibition (%)) came out at 59.5 ± 4.33%. In test [2], the “number of hippocampus astrocytes with GFAP positive expression compared with the styryl sulfone prototype compounds” value is “significantly lower” and the “Positive cell number (astrocytes with GFAP positive expression)” value (shortened to “Positive cell number”) is 78 ± 3. For the same compound, in test [3], the “midbrain CD11b protein expression compared with the styryl sulfone prototype compounds” value is listed as “equivalent or lower” and the “Expression (CD11b/GAPDH)” value came out at 1.11 ± 0.08. In addition, the “Expression (p-α-s/GAPDH)” value in test [4] stood at 0.63 ± 0.06. Besides, in test [5], the “Expression (pp38/GAPDH)” value amounted to 0.63 ± 0.06.
`COc1ccc(CC(=O)Oc2ccc(C(N)CS(=O)(=O)/C=C/c3ccc(OC(C)(C)C)c(OC(=O)N(C)c4ccccc4)c3)cc2)cc1` (stereo not drawn) [Compound P1-3, (E)-4-{1-amino-2-[4-t-butoxy-3-(N-methyl-N-phenylcarbamoyloxy)styrylsulfonyl]ethyl}phenyl-2-(4-methoxyphenyl)acetate]: in test [1] (setting [8]), the inhibition at 5 µM was determined as 25.8 ± 4.25%, the inhibition at 10 µM was 42 ± 5.34% and the inhibition at 20 µM is 58.2 ± 3.66%. The “Positive cell number” value in test [2] amounted to 74 ± 3. For the same compound, the “Expression (CD11b/GAPDH)” value in test [3] turned out to be 1.09 ± 0.08. Besides, the “Expression (p-α-s/GAPDH)” value in test [4] was determined as 0.31 ± 0.05. Also, in test [5], the “Expression (pp38/GAPDH)” value worked out at 0.33 ± 0.07.
On to `CCOC(CS(=O)(=O)/C=C/c1ccc(OC(C)=O)c(OC(=O)Nc2ccc(NC)cc2)c1)C(OCC)c1ccc(OCc2ccccc2)c(O)c1` (stereo not drawn) [Compound H2-4, (E)-4-{2-[3-(4-benzyloxy-3-hydroxyphenyl)-2,3-diethoxypropyl]sulfonylethenyl}-2-[N-(4-methylaminophenyl)carbamoyloxy]phenyl acetate], for which the inhibition at 2 µM in test [1] (Rattus norvegicus, Glial cell, 2 μM, read-out: NO inhibition (%)) is 32.2 ± 4.49%. For the same compound, the inhibition at 5 µM in test [1] (setting [6]) is 50.1 ± 5.37%. The inhibition at 10 µM in test [1] (setting [7]) came to 85.4 ± 4.9%. For the same compound, the “Positive cell number” value in test [2] came to 61 ± 5. Also, the “Expression (CD11b/GAPDH)” value in test [3] was found to be 0.69 ± 0.04. Moreover, the “Expression (p-α-s/GAPDH)” value in test [4] is given as 0.53 ± 0.13. For the same compound, the “Expression (pp38/GAPDH)” value in test [5] worked out at 0.43 ± 0.05.

The values above are taken from US12410124B2 (priority 2019, dated 2025).
